{"source": "ChEMBL document CHEMBL1649342", "about": "“Synthesis of azafluorenone antimicrobial agents” (2010)", "type_in_all_cases": "functional", "key": {"Candida albicans": {"test_system": "Candida albicans", "experiment": "Antimicrobial activity against Candida albicans B311"}, "Staphylococcus aureus": {"test_system": "Staphylococcus aureus", "experiment": "Antimicrobial activity against Staphylococcus aureus NCTC 8530"}, "Bacillus subtilis": {"test_system": "Bacillus subtilis", "experiment": "Antimicrobial activity against Bacillus subtilis IFO 3007"}, "Escherichia coli": {"test_system": "Escherichia coli", "experiment": "Antimicrobial activity against Escherichia coli IFO 3545"}, "Saccharomyces cerevisiae": {"test_system": "Saccharomyces cerevisiae", "experiment": "Antimicrobial activity against Saccharomyces cerevisiae IFO 0203"}}}
{"smiles": "Cc1ccnc2c1C(=O)c1ccccc1-2", "note": "[ONYCHINE]", "values": [{"measurement": "MIC", "setting": "Candida albicans", "value": 3.12, "unit": "µg/mL"}, {"measurement": "MIC", "setting": "Staphylococcus aureus", "value": 50, "unit": "µg/mL"}, {"measurement": "MIC", "setting": "Bacillus subtilis", "value": 50, "unit": "µg/mL"}, {"measurement": "MIC", "setting": "Escherichia coli", "value": 50, "unit": "µg/mL"}, {"measurement": "MIC", "setting": "Saccharomyces cerevisiae", "value": 50, "unit": "µg/mL"}]}
